According to the NIST ThermoML archive (doi:10.1021/je900127m):
± gives the expanded uncertainty stated by the source.

Test: xn = mol fraction of the nth substance listed
Details: 313.15 K, Fluid (supercritical or subcritical phases), Bellows volumetry

For O=C=O [carbon dioxide] + CCO, which mass density (1000 kPa, x1 = 1) is on record?
Its mass density is 17.9 ± 0.2 kg/m3.

What about the mass density (2000 kPa, x1 = 0.1) of the same molecule?
Its mass density is 787.2 ± 0.3 kg/m3.

What about the mass density (2000 kPa, x1 = 1) of the same molecule?
Its mass density is 37.1 ± 0.2 kg/m3.

And the mass density (3000 kPa, x1 = 0.1)?
The mass density was 788.2 ± 0.3 kg/m3.

What about the mass density (3000 kPa, x1 = 1) of the same molecule?
Its mass density is 58.7 ± 0.2 kg/m3.

And the mass density (4000 kPa, x1 = 0.1)?
The mass density was 789.2 ± 0.3 kg/m3.

What about the mass density (4000 kPa, x1 = 0.2) of the same molecule?
Its mass density is 799.4 ± 0.3 kg/m3.

And the mass density (4000 kPa, x1 = 1)?
Its mass density is 83.5 ± 0.2 kg/m3.

And the mass density (5000 kPa, x1 = 0.1)?
The mass density was 790.2 ± 0.3 kg/m3.

And the mass density (5000 kPa, x1 = 0.2)?
Its mass density is 800.6 ± 0.3 kg/m3.

And the mass density (5000 kPa, x1 = 1)?
The mass density was 112.7 ± 0.2 kg/m3.

What about the mass density (6000 kPa, x1 = 0.1) of the same molecule?
Its mass density is 791.1 ± 0.3 kg/m3.

And the mass density (6000 kPa, x1 = 0.2)?
The mass density was 801.9 ± 0.3 kg/m3.

And the mass density (6000 kPa, x1 = 0.3)?
The mass density was 811.2 ± 0.3 kg/m3.

What about the mass density (6000 kPa, x1 = 0.4) of the same molecule?
The mass density was 816.6 ± 0.2 kg/m3.

And the mass density (6000 kPa, x1 = 1)?
Its mass density is 148.8 ± 0.2 kg/m3.

And the mass density (7000 kPa, x1 = 0.1)?
The mass density was 792.1 ± 0.3 kg/m3.

What about the mass density (7000 kPa, x1 = 0.2) of the same molecule?
The mass density was 803.1 ± 0.3 kg/m3.

And the mass density (7000 kPa, x1 = 0.3)?
Its mass density is 812.7 ± 0.3 kg/m3.

What about the mass density (7000 kPa, x1 = 0.4) of the same molecule?
Its mass density is 818.7 ± 0.2 kg/m3.

What about the mass density (7000 kPa, x1 = 0.5) of the same molecule?
The mass density was 821.1 ± 0.2 kg/m3.

What about the mass density (7000 kPa, x1 = 1) of the same molecule?
Its mass density is 197.3 ± 0.2 kg/m3.

What about the mass density (8000 kPa, x1 = 0.1) of the same molecule?
The mass density was 793.1 ± 0.3 kg/m3.

And the mass density (8000 kPa, x1 = 0.2)?
The mass density was 804.2 ± 0.3 kg/m3.

What about the mass density (8000 kPa, x1 = 0.3) of the same molecule?
The mass density was 814.3 ± 0.3 kg/m3.

What about the mass density (8000 kPa, x1 = 0.4) of the same molecule?
Its mass density is 820.8 ± 0.2 kg/m3.

What about the mass density (8000 kPa, x1 = 0.5) of the same molecule?
Its mass density is 824 ± 0.2 kg/m3.

And the mass density (8000 kPa, x1 = 0.6)?
The mass density was 818.8 ± 0.3 kg/m3.

What about the mass density (8000 kPa, x1 = 0.7) of the same molecule?
Its mass density is 804.5 ± 0.5 kg/m3.

What about the mass density (8000 kPa, x1 = 0.8) of the same molecule?
The mass density was 771.1 ± 3.7 kg/m3.

And the mass density (8000 kPa, x1 = 1)?
The mass density was 276.7 ± 0.4 kg/m3.

What about the mass density (9000 kPa, x1 = 0.1) of the same molecule?
Its mass density is 794 ± 0.3 kg/m3.

And the mass density (9000 kPa, x1 = 0.2)?
Its mass density is 805.3 ± 0.3 kg/m3.

What about the mass density (9000 kPa, x1 = 0.3) of the same molecule?
Its mass density is 815.7 ± 0.3 kg/m3.

What about the mass density (9000 kPa, x1 = 0.4) of the same molecule?
Its mass density is 822.8 ± 0.2 kg/m3.

And the mass density (9000 kPa, x1 = 0.5)?
The mass density was 826.8 ± 0.2 kg/m3.

And the mass density (9000 kPa, x1 = 0.6)?
Its mass density is 823 ± 0.3 kg/m3.

What about the mass density (9000 kPa, x1 = 0.7) of the same molecule?
Its mass density is 811.5 ± 0.4 kg/m3.

And the mass density (9000 kPa, x1 = 0.8)?
The mass density was 784.8 ± 0.9 kg/m3.

And the mass density (9000 kPa, x1 = 0.899)?
Its mass density is 729.1 ± 1.5 kg/m3.

What about the mass density (9000 kPa, x1 = 0.95) of the same molecule?
The mass density was 667 ± 4.9 kg/m3.

What about the mass density (9000 kPa, x1 = 1) of the same molecule?
Its mass density is 483.4 ± 0.4 kg/m3.

And the mass density (10000 kPa, x1 = 0.1)?
The mass density was 795 ± 0.3 kg/m3.

What about the mass density (10000 kPa, x1 = 0.2) of the same molecule?
The mass density was 806.6 ± 0.3 kg/m3.

What about the mass density (10000 kPa, x1 = 0.3) of the same molecule?
The mass density was 817.2 ± 0.3 kg/m3.

And the mass density (10000 kPa, x1 = 0.4)?
Its mass density is 824.7 ± 0.2 kg/m3.

What about the mass density (10000 kPa, x1 = 0.5) of the same molecule?
The mass density was 829.4 ± 0.2 kg/m3.

What about the mass density (10000 kPa, x1 = 0.6) of the same molecule?
The mass density was 827 ± 0.2 kg/m3.

What about the mass density (10000 kPa, x1 = 0.7) of the same molecule?
Its mass density is 817.8 ± 0.4 kg/m3.

What about the mass density (10000 kPa, x1 = 0.8) of the same molecule?
The mass density was 795.8 ± 0.7 kg/m3.

What about the mass density (10000 kPa, x1 = 0.899) of the same molecule?
The mass density was 752.3 ± 1.1 kg/m3.

And the mass density (10000 kPa, x1 = 0.95)?
The mass density was 709.8 ± 2.5 kg/m3.

And the mass density (10000 kPa, x1 = 1)?
Its mass density is 627.4 ± 0.4 kg/m3.

Which mass density (1000 kPa, x2 = 0) does the source give for CCO [ethanol] + O=C=O here?
Its mass density is 773.1 ± 0.2 kg/m3.

What about the mass density (2000 kPa, x2 = 0) of the same molecule?
The mass density was 773.9 ± 0.2 kg/m3.

And the mass density (3000 kPa, x2 = 0)?
Its mass density is 774.8 ± 0.2 kg/m3.

What about the mass density (4000 kPa, x2 = 0) of the same molecule?
The mass density was 775.5 ± 0.2 kg/m3.

And the mass density (5000 kPa, x2 = 0)?
Its mass density is 776.4 ± 0.2 kg/m3.

What about the mass density (6000 kPa, x2 = 0) of the same molecule?
The mass density was 777.2 ± 0.2 kg/m3.

What about the mass density (7000 kPa, x2 = 0) of the same molecule?
The mass density was 778 ± 0.2 kg/m3.

And the mass density (8000 kPa, x2 = 0)?
Its mass density is 778.8 ± 0.2 kg/m3.

What about the mass density (9000 kPa, x2 = 0) of the same molecule?
Its mass density is 779.6 ± 0.2 kg/m3.

What about the mass density (10000 kPa, x2 = 0) of the same molecule?
The mass density was 780.4 ± 0.2 kg/m3.
